Among the data in patent US12384771B2, “Pleuromutilin derivative containing thiazole-pyridine benzyl quaternary ammonium salt side chain and preparation method and use thereof” (SHAANXI UNIVERSITY OF SCIENCE AND TECHNOLOGY, priority 2022, dated 2025) are MIC values, retold here.

Structures can show the parent of a compound that is named as a salt. Where two headings read alike, the source gives them in different places.

Experiment in all cases: MIC, microbroth dilution, standard strains
Holding throughout (type): cell-based

The subject of test [1] is Acinetobacter baumannii ATCC 19606. The protocol:
(§1) The minimum inhibitory concentration (MIC) of the pleuromutilin derivative containing thiazole-pyridine benzyl quaternary ammonium salt side chain was tested with moxifloxacin as a positive control (purchased from Shanghai Macklin Biochemical Technology Co., Ltd.) using a microbroth dilution method.
(§2) Standard strains include gram-positive bacteria: Staphylococcus epidermidis ATCC 12228, Staphylococcus aureus ATCC 29213, ATCC 25923 and methicillin-resistant Staphylococcus aureus ATCC 33591; gram-negative bacteria: Salmonella ATCC 14028, Acinetobacter baumannii ATCC 19606, Escherichia coli ATCC 25922 and CMCC 44103, all the strains were purchased from the American Type Culture Collection.

The test system of test [2] is Escherichia coli CMCC 44103. The protocol:
as §1, §2

In test [3] the test system is Staphylococcus aureus ATCC 25923. The protocol: as §1, §2
Test [4] has as its system Staphylococcus aureus ATCC 29213. The protocol:
as §1, §2

The test system of test [5] is Staphylococcus epidermidis ATCC 12228. The protocol:
as §1, §2

Test [6] has as its system methicillin-resistant Staphylococcus aureus ATCC 33591. The protocol:
as §1, §2

Test [7] concerns Escherichia coli ATCC 25922. The protocol:
as §1, §2

The subject of test [8] is Salmonella ATCC 14028. The protocol: as §1, §2
The mark [9] stands for this setting: ATCC19606, read-out: Minimum inhibitory concentration.
Where [10] appears, read: CMCC44103, read-out: Minimum inhibitory concentration.
Where [11] appears, read: ATCC25923, read-out: Minimum inhibitory concentration.
The mark [12] stands for this setting: ATCC29213, read-out: Minimum inhibitory concentration.
Setting [13] is: ATCC12228, read-out: Minimum inhibitory concentration.
Where [14] appears, read: ATCC33591, read-out: Minimum inhibitory concentration.
[15] abbreviates: ATCC19606, ATCC 19606, read-out: Minimum inhibitory concentration.
Where [16] appears, read: ATCC25922, ATCC 25922, read-out: Minimum inhibitory concentration.
Setting [17] is: CMCC44103, CMCC 44103, read-out: Minimum inhibitory concentration.
Setting [18] is: ATCC14028, ATCC 14028, read-out: Minimum inhibitory concentration.
The mark [19] stands for this setting: ATCC25923, ATCC 25923, read-out: Minimum inhibitory concentration.
The mark [20] stands for this setting: ATCC29213, ATCC 29213, read-out: Minimum inhibitory concentration.
[21] abbreviates: ATCC12228, ATCC 12228, read-out: Minimum inhibitory concentration.
Setting [22] is: ATCC33591, ATCC 33591, read-out: Minimum inhibitory concentration.

Turning to `C=C[C@]1(C)C[C@@H](OC(=O)CSc2nc(-c3cc[n+](Cc4ccccc4)cc3)cs2)[C@]2(C)[C@H](C)CC[C@]3(CCC(=O)[C@H]32)[C@@H](C)[C@@H]1O` [Compound 1, 1-Benzyl-4-(2-(((8-hydroxy-4,7,9,12-tetramethyl-3-oxy-7-vinyldecahydro-4,9a-propanecyclopenta[8]cyclen-5-yl)oxy)-2-oxoethyl)thiothiazol-4-yl)pyridyl bromide salt], the MIC in test [1] (setting [9]) came to 4 µg/mL; in test [2] (setting [10]), 0.25 µg/mL; in test [3] (setting [11]), 0.5 µg/mL; in test [4] (setting [12]), 0.125 µg/mL; in test [5] (setting [13]) it was 2 µg/mL; in test [6] (setting [14]), 1 µg/mL.

`C=C[C@]1(C)C[C@@H](OC(=O)CSc2nc(-c3cc[n+](Cc4ccc(C(F)(F)F)cc4)cc3)cs2)[C@]2(C)[C@H](C)CC[C@]3(CCC(=O)[C@H]32)[C@@H](C)[C@@H]1O` [Compound 3, 1-(4-(trifluoromethyl)benzyl)-4-(2-(8-hydroxy-4,7,9,12-tetramethyl-3-oxo-7-vinyldecahydro-4,9a-propancyclopent[8]cyclen-5-yl)oxy)-2-oxoethyl)thiazol-4-yl)pyridyl bromide salt]: the MIC in test [1] (setting [15]) is 2 µg/mL; in test [7] (setting [16]) it was 1 µg/mL; in test [2] (setting [17]), 2 µg/mL; in test [8] (setting [18]) it was 2 µg/mL; in test [3] (setting [19]) it was 1 µg/mL; in test [4] (setting [20]), 0.25 µg/mL. For the same compound, the MIC in test [5] (setting [21]) was 1 µg/mL; in test [6] (setting [22]), 2 µg/mL.

Take `C=C[C@]1(C)C[C@@H](OC(=O)CSc2nc(-c3cc[n+](Cc4ccc(OC(F)(F)F)cc4)cc3)cs2)[C@]2(C)[C@H](C)CC[C@]3(CCC(=O)[C@H]32)[C@@H](C)[C@@H]1O` [Compound 5, 1-(4-(trifluoromethoxy)benzyl)-4-(2-(8-hydroxy-4,7,9,12-tetramethyl-3-oxo-7-vinyldecahydro-4,9a-propancyclopent[8]cyclen-5-yl)oxy)-2-oxoethyl)thiazol-4-yl)pyridyl bromide salt]: the MIC in test [1] (setting [15]) stood at 8 µg/mL; in test [7] (setting [16]) it was 2 µg/mL; in test [2] (setting [17]) it was 32 µg/mL; in test [8] (setting [18]), 4 µg/mL; in test [3] (setting [19]), 32 µg/mL; in test [4] (setting [20]), 2 µg/mL. The MIC in test [5] (setting [21]) and in test [6] (setting [22]) was 2 µg/mL throughout.

On to `C=C[C@]1(C)C[C@@H](OC(=O)CSc2nc(-c3cc[n+](Cc4ccc(C(C)(C)C)cc4)cc3)cs2)[C@]2(C)[C@H](C)CC[C@]3(CCC(=O)[C@H]32)[C@@H](C)[C@@H]1O` [Compound 6, 1-(4-(tert-butyl)benzyl)-4-(2-(8-hydroxy-4,7,9,12-tetramethyl-3-oxo-7-vinyldecahydro-4,9a-propancyclopent[8]cyclen-5-yl)oxy)-2-oxoethyl)thiazol-4-yl)pyridyl bromide salt], for which the MIC in test [1] (setting [15]) was 2 µg/mL; in test [7] (setting [16]) it was 2 µg/mL; in test [2] (setting [17]) it was 2 µg/mL; in test [8] (setting [18]) it was 2 µg/mL; in test [3] (setting [19]) it was 0.5 µg/mL; in test [4] (setting [20]) it was 0.25 µg/mL. Besides, the figures for the MIC in test [5] (setting [21]) and in test [6] (setting [22]) were 2 µg/mL and 1 µg/mL, respectively.

As for `C=C[C@]1(C)C[C@@H](OC(=O)CSc2nc(-c3cc[n+](Cc4ccc(C#N)cc4)cc3)cs2)[C@]2(C)[C@H](C)CC[C@]3(CCC(=O)[C@H]32)[C@@H](C)[C@@H]1O` [Compound 8, 1-(4-(cyano)benzyl)-4-(2-(8-hydroxy-4,7,9,12-tetramethyl-3-oxo-7-vinyldecahydro-4,9a-propancyclopent[8]cyclen-5-yl)oxy)-2-oxoethyl)thiazol-4-yl)pyridyl bromide salt], the MIC in test [1] (setting [9]) came to 32 µg/mL; in test [7] (ATCC25922, read-out: Minimum inhibitory concentration), 2 µg/mL; in test [2] (setting [10]), 8 µg/mL; in test [8] (ATCC14028, read-out: Minimum inhibitory concentration), 32 µg/mL; in test [3] (setting [11]), 1 µg/mL; in test [4] (setting [12]) it was 0.125 µg/mL. Further, the MIC in test [5] (setting [13]) was found to be 8 µg/mL; in test [6] (setting [14]), 64 µg/mL.

For the compound `C=C[C@]1(C)C[C@@H](OC(=O)CSc2nc(-c3cc[n+](Cc4ccc(F)cc4)cc3)cs2)[C@]2(C)[C@H](C)CC[C@]3(CCC(=O)[C@H]32)[C@@H](C)[C@@H]1O` [Compound 9, 1-(4-fluorobenzyl)-4-(2-(8-hydroxy-4,7,9,12-tetramethyl-3-oxo-7-vinyldecahydro-4,9a-propancyclopent[8]cyclen-5-yl)oxy)-2-oxoethyl)thiazol-4-yl)pyridyl bromide salt], the MIC in test [1] (setting [15]) worked out at 16 µg/mL; in test [7] (setting [16]) it was 2 µg/mL; in test [2] (setting [17]) it was 1 µg/mL; in test [8] (setting [18]) it was 1 µg/mL; in test [3] (setting [19]), 1 µg/mL; in test [4] (setting [20]) it was 1 µg/mL. For the same compound, the MIC in test [5] (setting [21]) and in test [6] (setting [22]) was 2 µg/mL in each case.

Turning to `C=C[C@]1(C)C[C@@H](OC(=O)CSc2nc(-c3cc[n+](Cc4ccc(Cl)cc4)cc3)cs2)[C@]2(C)[C@H](C)CC[C@]3(CCC(=O)[C@H]32)[C@@H](C)[C@@H]1O` [Compound 10, 1-(4-chlorobenzyl)-4-(2-(8-hydroxy-4,7,9,12-tetramethyl-3-oxo-7-vinyldecahydro-4,9a-propancyclopent[8]cyclen-5-yl)oxy)-2-oxoethyl)thiazol-4-yl)pyridyl bromide salt], the MIC in test [1] (setting [15]) came out at 2 µg/mL; in test [7] (setting [16]) it was 0.5 µg/mL; in test [2] (setting [17]), 1 µg/mL; in test [8] (setting [18]) it was 2 µg/mL; in test [3] (setting [19]), 2 µg/mL; in test [4] (setting [20]), 0.125 µg/mL. In addition, the MIC in test [5] (setting [21]) and in test [6] (setting [22]) was 2 µg/mL throughout.

For `C=C[C@]1(C)C[C@@H](OC(=O)CSc2nc(-c3cc[n+](Cc4ccc(Br)cc4)cc3)cs2)[C@]2(C)[C@H](C)CC[C@]3(CCC(=O)[C@H]32)[C@@H](C)[C@@H]1O` [Compound 11, 1-(4-bromobenzyl)-4-(2-(8-hydroxy-4,7,9,12-tetramethyl-3-oxo-7-vinyldecahydro-4,9a-propancyclopent[8]cyclen-5-yl)oxy)-2-oxoethyl)thiazol-4-yl)pyridyl bromide salt], the MIC in test [1] (setting [15]) was determined as 2 µg/mL; in test [7] (setting [16]), 2 µg/mL; in test [2] (setting [17]), 0.5 µg/mL; in test [8] (setting [18]), 4 µg/mL; in test [3] (setting [19]), 1 µg/mL; in test [4] (setting [20]), 0.5 µg/mL. The MIC in test [5] (setting [21]) and in test [6] (setting [22]) was 2 µg/mL throughout.

On to `C=C[C@]1(C)C[C@@H](OC(=O)CSc2nc(-c3cc[n+](Cc4ccc(-c5ccccc5)cc4)cc3)cs2)[C@]2(C)[C@H](C)CC[C@]3(CCC(=O)[C@H]32)[C@@H](C)[C@@H]1O` [Compound 12, 1-([1,1′-biphenyl]-4-ylmethyl)-4-(2-(8-hydroxy-4,7,9,12-tetramethyl-3-oxo-7-vinyldecahydro-4,9a-propancyclopent[8]cyclen-5-yl)oxy)-2-oxoethyl)thiazol-4-yl)pyridyl bromide salt], for which the MIC worked out at 2 µg/mL in test [1] (setting [15]); 1 µg/mL in test [7] (setting [16]); 1 µg/mL in test [2] (setting [17]); 2 µg/mL in test [8] (setting [18]); 1 µg/mL in test [3] (setting [19]); 0.5 µg/mL in test [4] (setting [20]). For the same compound, the MIC in test [5] (setting [21]) and in test [6] (setting [22]) was 2 µg/mL in each case.

Consider `C=C[C@]1(C)C[C@@H](OC(=O)CSc2nc(-c3cc[n+](Cc4cc(C)cc(C)c4)cc3)cs2)[C@]2(C)[C@H](C)CC[C@]3(CCC(=O)[C@H]32)[C@@H](C)[C@@H]1O` [Compound 13, 1-(3,5-dimethylbenzyl)-4-(2-(8-hydroxy-4,7,9,12-tetramethyl-3-oxo-7-vinyldecahydro-4,9a-propancyclopent[8]cyclen-5-yl)oxy)-2-oxoethyl)thiazol-4-yl)pyridyl bromide salt], for which the MIC in test [1] (setting [15]) was 8 µg/mL; in test [7] (setting [16]), 32 µg/mL; in test [2] (setting [17]), 32 µg/mL; in test [8] (setting [18]), 16 µg/mL; in test [3] (setting [19]), 64 µg/mL; in test [4] (setting [20]), 128 µg/mL. Also, the MIC in test [5] (setting [21]) was determined as 128 µg/mL; in test [6] (setting [22]) it was 64 µg/mL.

Take `C=C[C@]1(C)C[C@@H](OC(=O)CSc2nc(-c3cc[n+](Cc4cc(OC)cc(OC)c4)cc3)cs2)[C@]2(C)[C@H](C)CC[C@]3(CCC(=O)[C@H]32)[C@@H](C)[C@@H]1O` [Compound 14, 1-(3,5-dimethoxybenzyl)-4-(2-(8-hydroxy-4,7,9,12-tetramethyl-3-oxo-7-vinyldecahydro-4,9a-propancyclopent[8]cyclen-5-yl)oxy)-2-oxoethyl)thiazol-4-yl)pyridyl bromide salt]: the MIC came to 8 µg/mL in test [1] (setting [15]); 32 µg/mL in test [7] (setting [16]); 8 µg/mL in test [2] (setting [17]); 16 µg/mL in test [8] (setting [18]); 64 µg/mL in test [3] (setting [19]); 128 µg/mL in test [4] (setting [20]). Besides, the MIC in test [5] (setting [21]) and in test [6] (setting [22]) was 64 µg/mL each time.
